Results from US12410228B2, “Insulin analogs” (UNIVERSITY OF UTAH RESEARCH FOUNDATION, priority 2016, dated 2025).

How the values were obtained:
fish = experiment: Effect on fish (injection or presence in the water); type: in vivo
human IR (isoform B) = target: T1, human IR (isoform B) (Homo sapiens, UniProt P06213); experiment: biochemical; type: binding
T1 construct: expressed in transfected cells; host or cells: R- IR-B cells, lysed with Triton X-100 and captured with anti-IR antibody 83-7; This comes from the general description of the Denley et al. 2004 format

human IR-B = target: T2, human IR-B (Homo sapiens, UniProt P06213); experiment: cell-based
T2 construct: expressed in transfected cells; host or cells: NIH 3T3 mouse fibroblasts overexpressing human IR-B (puromycin selection)

hIR = hIR (Homo sapiens, UniProt P06213); experiment: hIR activation / insulin signalling activation by DOI analogues and venom insulins (Example 11, FIGS. 22-27); type: cell-based
[1] = relative to insulin; Bao et al. 1997; cited from earlier work

CC[C@H](C)[C@@H]1NC(=O)[C@H](CC(C(=O)O)C(=O)O)NC(=O)[C@H](CO)NC(=O)CNC(=O)[C@@H](NC(=O)[C@H](CCCNC(=N)N)NC(=O)[C@H](Cc2c[nH]cn2)NC(=O)[C@H](CCCCN)NC(=O)[C@@H]2C[C@@H](O)CN2C(=O)[C@@H](NC(=O)[C@H](CC(=O)O)NC(=O)[C@H](Cc2ccccc2)NC(=O)[C@@H](N)[C@@H](C)O)[C@@H](C)O)CSSC[C@@H]2NC(=O)[C@@H](NC(=O)[C@H](Cc3c[nH]cn3)NC(=O)[C@H](CC(C(=O)O)C(=O)O)NC(=O)[C@@H](NC(=O)[C@@H](NC(=O)CN)C(C)C)C(C)C)C[Se][Se]C[C@H](NC(=O)[C@@H]3CCCN3C(=O)[C@H](CCCNC(=N)N)NC(=O)[C@H](Cc3c[nH]cn3)NC2=O)C(=O)N[C@@H](CO)C(=O)N[C@@H](CC(N)=O)C(=O)N[C@@H](C)C(=O)N[C@@H](CCC(=O)O)C(=O)N[C@@H](Cc2ccccc2)C(=O)N[C@@H](CCCCN)C(=O)N[C@@H](CCCCN)C(=O)N[C@@H](Cc2ccc(O)cc2)C(=O)N[C@H](C(N)=O)CSSC[C@@H](C(=O)N[C@@H](Cc2ccc(O)cc2)C(=O)N[C@@H](CCCNC(=N)N)C(=O)O)NC(=O)[C@H](CC(C)C)NC(=O)[C@H](CC(=O)O)NC(=O)[C@H](CCSC)NC(=O)[C@H](Cc2ccc(O)cc2)NC(=O)[C@H](CO)NC(=O)[C@H](CC(N)=O)NC(=O)[C@H]([C@@H](C)O)NC1=O [sCon-Ins G1]
hypoglycemic effect in fish (fish; injected into fish): induces hypoglycemic shock | effect on fish motility (fish; present in the water): slows fish motility | IC50 (human IR (isoform B)): 17.4 nM | activity / affinity at human IR relative to human insulin (fold less) (human IR (isoform B)): thirty-fold less active | activity against the human IR-B relative to PTM-free analogue (human IR (isoform B)): four times more active | EC50 (human IR-B): 7.94 nM | efficiency of inducing Akt phosphorylation relative to PTM-free analogue (human IR-B): eight-fold greater efficiency

DOI: monomeric analogue lacking residues 23 to 30 of the B chain of human insulin [reference compound]
potency in hIR activation, comparison in words (hIR): same | potency relative to human insulin (fold weaker) (hIR; relative to human insulin): 1,000 fold | bioactivity preserved [1]: less than 0.1%

hIns[TyrB15, TyrB20, DOI]: des-octapeptide human insulin with Tyr at B15 and B20
activity in Akt phosphorylation assay relative to hIns[DOI] (human IR-B): ca five-fold more active

quadruple DOI mutant: DOI analogue with A8 His, A9 Arg, B10 Glu and B20 Tyr; A chain SEQ ID NO: 39, B chain SEQ ID NO: 30
potency in hIR activation, comparison in words (hIR): comparable to that of human insulin
